Experiments:
[1] = tested on: Colon cancer cell lines; assay: NCI in vitro cytotoxicity screen (SRB), colon panel; type: cell-based, human; conditions: average of six to eight different cancer cell lines
Protocol: (§1) Biological Activity: In vitro biological activity studies were carried out at National Cancer Institute (USA).
(§2) Cytotoxicity: Compounds VIa and VIb were evaluated in vitro against sixty human tumour cells derived from nine cancer types (leukemia, non-small-cell lung, colon, CNS, melanoma, ovarian, prostate, and breast cancer). For each compound, dose response curves for each cell line were measured at a minimum of five concentrations at 10 fold dilutions. A protocol of 48 h continuous drug exposure was used and a sulforhodamine B (SRB) protein assay was used to estimate cell viability or growth. The concentration causing 50% cell growth inhibition (GI50), total cell growth inhibition (TGI 0% growth) and 50% cell death (LC50, −50% growth) compared with the control was calculated.
(§3) Each cancer type represents the average of six to eight different cancer cell lines.

[2] = tested on: Breast cancer cell lines; assay: NCI in vitro cytotoxicity screen (SRB), breast panel; type: cell-based, human; conditions: average of six to eight different cancer cell lines
Protocol: as §1, §2, §3

[3] = tested on: CNS cancer cell lines; assay: NCI in vitro cytotoxicity screen (SRB), CNS panel; type: cell-based, human; conditions: average of six to eight different cancer cell lines
Protocol: as §1, §2, §3

[4] = tested on: Prostate cancer cell lines; assay: NCI in vitro cytotoxicity screen (SRB), prostate panel; type: cell-based, human; conditions: average of six to eight different cancer cell lines
Protocol: as §1, §2, §3

[5] = tested on: non-small-cell lung cancer cell lines; assay: NCI in vitro cytotoxicity screen (SRB), non-small-cell lung panel; type: cell-based, human; conditions: average of six to eight different cancer cell lines
Protocol: as §1, §2, §3

[6] = tested on: sixty human tumour cells derived from nine cancer types; assay: NCI in vitro cytotoxicity screen, 48 h drug exposure, sulforhodamine B (SRB) protein assay; type: cell-based; conditions: for Log10 GI50 mean graph midpoint (MG_MID): concentration causing 50% cell growth inhibition; for Log10 GI50 mean graph midpoint (MG_MID) / Log10 TGI mean graph midpoint (MG_MID): mean over human tumour cell lines, 48 h exposure; for Log10 TGI mean graph midpoint (MG_MID): total cell growth inhibition (0% growth)
Protocol: as §1, §2

[7] = tested on: Melanoma cell lines; assay: NCI in vitro cytotoxicity screen (SRB), melanoma panel; type: cell-based, human; conditions: average of six to eight different cancer cell lines
Protocol: as §1, §2, §3

[8] = tested on: Renal cancer cell lines; assay: NCI in vitro cytotoxicity screen (SRB), renal panel; type: cell-based, human; conditions: average of six to eight different cancer cell lines
Protocol: as §1, §2, §3

[9] = tested on: Leukaemia cell lines; assay: NCI in vitro cytotoxicity screen (SRB), leukaemia panel; type: cell-based, human; conditions: average of six to eight different cancer cell lines
Protocol: as §1, §2, §3

[10] = tested on: Ovarian cancer cell lines; assay: NCI in vitro cytotoxicity screen (SRB), ovarian panel; type: cell-based, human; conditions: average of six to eight different cancer cell lines
Protocol: as §1, §2, §3

| SMILES | in vitro cytotoxicity, log10 value (quantity not given) [1] | in vitro cytotoxicity, log10 value (quantity not given) [2] | in vitro cytotoxicity, log10 value (quantity not given) [3] | in vitro cytotoxicity, log10 value (quantity not given) [4] | in vitro cytotoxicity, log10 value (quantity not given) [5] | Log10 GI50 mean graph midpoint (MG_MID) [6] | Log10 TGI mean graph midpoint (MG_MID) [6] | in vitro cytotoxicity, log10 value (quantity not given) [7] | in vitro cytotoxicity, log10 value (quantity not given) [8] | in vitro cytotoxicity, log10 value (quantity not given) [9] | in vitro cytotoxicity, log10 value (quantity not given) [10] | cytotoxic / anticancer activity, in words ([6]; human tumour cell lines) |
| --- | --- | --- | --- | --- | --- | --- | --- | --- | --- | --- | --- | --- |
| COc1cc2c(cc1OCCCOc1cc(-c3ccc(F)cc3)nc(C)n1)N=C[C@@H]1CCCN1C2=O [VIa, 7-methoxy-8-[6′-(4″-fluorophenyl)-2′-methylpyrimidine-4′-yloxy]propoxy-(11aS)-1,2,3,11a-tetrahydro-5H-pyrrolo[2,1,c][1,4]benzodiazepin-5-one] | −4.12 | −4.09 | −4.10 | −4.00 | −4.07 | −4.73 | −4.34 | −4.14 | −4.18 | −4.03 | −4.05 |  |
| COc1cc2c(cc1OCCCCOc1cc(-c3ccc(F)cc3)nc(C)n1)N=C[C@@H]1CCCN1C2=O [VIb, 7-methoxy-8-[6′-(4″-fluorophenyl)-2′-methylpyrimidine-4′-yloxy]butoxy-(11aS)-1,2,3,11a-tetrahydro-5H-pyrrolo[2,1,c][1,4]benzodiazepin-5-one] | −4.67 | −4.52 | −4.40 | −4.45 | −4.61 | −6.41 | −5.57 | −5.22 | −4.39 | −5.41 | −4.33 | slightly higher activity |

From US6683073B1, “Pyrimidine linked pyrrolo[2,1-c][1,4]benzodiazepines as potential antitumour agents” (Council of Scientific and Industrial Research, priority 2003, dated 2004)
